Data reported in patent US20240408086A1, “USE OF LUVADAXISTAT FOR THE TREATMENT OF COGNITIVE IMPAIRMENT” (TAKEDA PHARMACEUTICAL COMPANY LIMITED, priority 2021, published 2024).

Tested on: rat hippocampus
Test: D-serine on short-term potentiation and long-term depression in rat hippocampal slices
Parameters: species or system Sprague Dawley rats
Conditions: 1 mM D-serine vs controls
Method: To obtain rat hippocampal slices, 4-week-old Sprague Dawley rats (provided by Elevage Janvier, Le Genest-Saint-Isle, France) were euthanized by fast decapitation without anesthesia. The brain was quickly removed and soaked in ice-cold oxygenated buffer: 2 mM KCl, 1.2 mM NaH2PO4, 7 mM MgCl2, 0.5 mM CaCl2), 26 mM NaHCO3, 11 mM glucose, and 250 mM sucrose. Hippocampal slices were prepared at 400 μm thickness with a McILWAIN tissue chopper. […] Slices were continuously perfused with oxygenated aCSF during experiments. The animals were housed and used in accordance with French and European legislation.
Electrophysiological recordings were obtained from a single hippocampal slice placed on the chamber and perfused with aCSF at a constant rate. Extracellular field excitatory postsynaptic potentials (fEPSPs) were recorded in the CA1 stratum radiatum using a glass micropipette filled with aCSF. fEPSPs were evoked by electrical stimulation of Schaffer collaterals/commissural pathway at 0.1 Hz with a glass stimulating electrode placed in the stratum radiatum.
Acute high doses (1 mM) of D-serine induced hippocampal synaptic plasticity (short-term potentiation and long-term depression) compared with controls in the rat hippocampus (FIGS. 1A-1C). Data in FIGS. 1A and 1B were normalized to the 10-minute control period.

N[C@H](CO)C(=O)O [D-serine]
Depression of EPSP amplitudes (long-term depression) (p=0.0374, unpaired t-test): significantly decreased the depression of EPSP amplitudes | Potentiation of excitatory postsynaptic potential (EPSP) amplitudes (short-term potentiation) (p=0.0603, unpaired t-test): increased the potentiation of excitatory postsynaptic potential (EPSP) amplitudes, although this change was not statistically significant
